This passage reports melting point results from a melting point compilation (Tetko et al.; mined from patent text by program, amines drawn as free bases though some values may be those of a salt).

Molecules are shown by their SMILES.

Consider `CNC(=O)c1cc2c(nc(C)n2C)c2c1C(=O)CC1(Cc3ccccc3C1)N2`, for which the melting point (commonly the temperature, or range, at which the solid turns liquid) was 261 °C.

In turn, `CC(=O)NC1CCN(c2c(F)cc([N+](=O)[O-])c(F)c2CO)C1` (configuration not stated) returned a melting point of 142 to 144 °C.

`CCOC(=CC=O)C1CCC2C3CCC4CC(O)CCC4(C)C3C(=O)CC12C` (configuration not stated) came in with a melting point of 175 to 178 °C.

Take `O=C(O)COc1c2ccccc2c(-c2cc(Br)c(OC(Cc3ccccc3)C(=O)O)c(Br)c2)c2c1sc1ccccc12` (configuration not stated): the melting point lay in the range of 110 to 120 °C.

`CCCc1sc(-c2ccccc2)nc1O` came in with a melting point of 86 to 87 °C.

The molecule `N#CC1(N2CCC(n3c(=O)[nH]c4ccccc43)CC2)CCCCC1` displayed a melting point of 199 to 201 °C.

In turn, `CC(C)(O)C#Cc1ncn2c1[C@@H]1CCCN1C(=O)c1ccccc1-2` had a melting point of 128 °C.

With `Cc1c(NC(=O)c2ccc(-c3ccc(F)cc3)cc2)ccc2cc(CN3CCC(CC(=O)N4CCCCC4)CC3)cnc12`, the melting point is 189 to 190 °C.

`O=S1(=O)NCN(C2CC2)c2ccc(F)c(Cl)c21` registered a melting point of 198 to 200 °C.

Regarding `CC12C=CC(=O)C=C1CCC1C2C(O)CC2(C)C1CC(OCCO)C2(O)C(=O)CO` (configuration not stated), the melting point fell in the range of 138 to 140 °C.

`Cc1ccc(C)c(CNc2cccc(S(=O)(=O)O)c2)c1`: the melting point was more than 275 °C.

In the case of `CN1CCN(C=Nc2ccc3nnc(-c4ccc([N+](=O)[O-])o4)n3n2)CC1`, the melting point fell in the range of 247 to 248 °C.

Molecule `CCOC(=O)C1=C(C)NC(C(F)F)=C(C(=O)OCC)C1c1cccc([N+](=O)[O-])c1` (configuration not stated) returned a melting point of 148 to 149 °C.

`COc1cc(C)cc(C2=NC(C)(C)CO2)c1N` gave a melting point of 135 to 138 °C.

Turning to `CN(CCCCCCCCC(=O)O)c1cnc(-c2ccccc2)c(-c2ccccc2)n1`, the melting point lay in the range of 103 to 105 °C.

`O=C1C=C(OCc2ccccc2)CN1` returned a melting point of 147 to 148 °C.

`CC=C(NC(=O)C1CC1(CC)CC)C(=O)O` (configuration not stated) displayed a melting point of 129 to 130 °C.

As for `CN1CCC(=C2c3ccccc3COc3ccc(Br)cc32)CC1`, the melting point was in the range of 131 to 132 °C.

For `COCc1ncc(OC)c(=O)[nH]1`, the melting point was 61 °C.

Take `CN(C/C=C/C#CC(C)(C)C)Cc1cccc(N(C)Cc2ccccc2)c1`: the melting point was 62 to 63 °C.

Consider `CC(C)CNC(=O)COc1ccn2nc(-c3ccccc3)c(-c3ccc(=O)n(C(C)C)n3)c2c1`, for which the melting point was 168 °C.

`CCN(CC)S(=O)(=O)c1ccc2c(c1)-c1c(nc(C)[nH]c1=O)CC2` registered a melting point of 249 to 251 °C.

The molecule `CS(=O)(=O)c1ccc(C(=O)c2c(S(C)(=O)=O)noc2C2CC2)c(Cl)c1` showed a melting point of 150 °C.

Turning to `CNC(=O)c1ccccc1Nc1nc(Nc2cc3c(cc2OC)CCOC(=O)N3C)ncc1Br`, the melting point is 251 to 253 °C.

For the molecule `Cc1oc(-c2ccccc2)nc1CCOc1ccc(CCC2OC(=O)NC2=O)cc1` (configuration not stated), the melting point was in the range of 193 to 194 °C.

`O=C1CCCC(=O)N1Nc1ccc([N+](=O)[O-])cc1` yielded a melting point of 197 to 198 °C.

With `N#Cc1ccc2c(c1)S(=O)(=O)NCN2C1CC1`, the melting point lay within 259 to 261 °C.

Regarding `CC1CC(=O)NN=C1c1ccc2c(c1)nc(C1CC1)n2Cc1ccc(-c2ccccc2-c2nnn[nH]2)cc1` (configuration not stated), the melting point is 265 °C.

Molecule `O=[N+]([O-])c1cc(OCC2CCCSC2)c(Cl)cc1F` (configuration not stated) registered a melting point of 100 to 103 °C.

For `OCCSc1cccc2nccn12`, the melting point lay in the range of 99 to 100 °C.

`COC(=O)C1=C(c2ccccc2)C(c2ccccc2)OC1=O` (configuration not stated) registered a melting point of 113 to 115 °C.

With `CCCCNCc1ccc2cc(O)ccc2c1`, the melting point is 108 to 112 °C.

For `CC(=O)Cc1ccc2oc(C(=O)O)c(C)c2c1`, the melting point fell in the range of 77 to 79 °C.

The molecule `Cc1nnc(-c2ccnc(Nc3cc(F)ccc3F)c2)o1` had a melting point of 202 to 203 °C.

With `CC(c1cccc(C2(c3ccccc3)OCCO2)c1)c1nc(N)no1` (configuration not stated), the melting point lay within 112 to 114 °C.

In the case of `CCCC(NS(=O)(=O)c1ccc(Cl)cc1)C(=S)Nc1ccc(CC(=O)O)cc1` (racemic), the melting point was in the range of 170 to 177 °C.

On to `CCn1nc2c(cc1=O)CCSc1sc(Br)cc1-2`, for which the melting point was 149 to 151 °C.

Molecule `CC(=O)N(O)C(C)c1ccc(C#Cc2cccs2)cc1` (configuration not stated) had a melting point of 128 to 129 °C.

Take `COc1ccc(/C=C/c2nc3cc(C(=O)O)ccc3[nH]2)cc1OC`: the melting point was more than 285 °C.

`CC(C)(C)[N+]([O-])=Cc1cc([N+](=O)[O-])ccc1O` showed a melting point of 172 °C.

As to `O=C(O)CCCCCCCCCCc1ccc(Br)cc1`, the melting point is 91 °C.

`CC(C)(C)OC(=O)NCC(=O)SCC(Cc1ccccc1)C(=O)Nc1cccc(C(=O)O)c1` (configuration not stated) yielded a melting point of 76 to 80 °C.

The molecule `O=C(NCc1ccccc1)c1ccnc(N2CCC(c3ccccc3)CC2=O)c1` (configuration not stated) returned a melting point of 55 to 60 °C.

With `Cc1nc(C)c(Cl)c(NCc2ccc(Oc3ccc4ncc([N+](=O)[O-])n4n3)c(O)c2)n1`, the melting point is more than 114 °C.

Consider `CC1(C)Cc2cc([N+](=O)[O-])cc(OCC3CO3)c2O1` (configuration not stated), for which the melting point turned out to be 108 °C.

As for `N#Cc1ccc(C(Cc2ccc(OC(F)(F)F)cc2)Cn2cncn2)cc1` (configuration not stated), the melting point worked out at 70 °C.

The molecule `CC(C)(CC(=O)Oc1ccccc1C(C)(C)C)NS(=O)(=O)C(F)(F)F` showed a melting point of 69 to 71 °C.

On to `COC(=O)c1ccc2c(ccn2Cc2cccc(NC(=O)OC3CCCC3)c2)c1`, for which the melting point was 131 to 133 °C.

For `CC1Sc2nccn2C1(C)C(O)CCc1ccco1` (configuration not stated), the melting point fell in the range of 144 to 145 °C.

As for `CCC(CC)N(Cc1ccc(C#N)cc1F)S(=O)(=O)c1ccc(F)cc1`, the melting point is 102 to 104 °C.

As for `COC(=O)c1ccc2cc(C(O)c3cccnc3)ccc2c1` (configuration not stated), the melting point fell in the range of 130 to 135 °C.

In turn, `O=c1cc(CO)oc(-c2ccccc2)c1O` gave a melting point of 151 to 154 °C.

Take `O=c1nc(-c2cccc(CCCO)n2)sc2ccccc12`: the melting point was found to be 146 °C.

As to `Cc1ccnc(SCc2nc3ccc(CC(=O)O)cc3[nH]2)c1`, the melting point fell in the range of 121 to 124 °C.

Regarding `CCCCCCCCCC=COC1OC(CO)C(O)C(O)C1NC(C)=O` (configuration not stated), the melting point lay within 152 to 154 °C.

For `CC(C)(C)c1cc(C=O)c(O)c(C(F)(F)F)c1`, the melting point was 56 to 57.5 °C.

`CCCc1nc2c(N)nc3ccccc3c2n1Cc1cc(-c2cccnc2)on1` returned a melting point of 206 to 207 °C.

In the case of `Cc1oc(-c2ccccc2)nc1COc1ccc(O)cc1`, the melting point lay in the range of 168 to 169 °C.

The molecule `COC(=O)CCCCCCc1ncsc1C=O` came in with a melting point of 60 to 62 °C.

As to `O=C(O)c1cccc(-c2ccc3c(c2)C(Oc2cccc(C(F)(F)F)c2)CC3)c1` (configuration not stated), the melting point is 175 to 185 °C.

Molecule `C=C(C)C(=O)Nc1cccc2c(O)cccc12` registered a melting point of 223 to 224 °C.

Turning to `Cc1cc(C)nc(N(CSC(=S)N2CCCC2)C(=O)NS(=O)(=O)c2ccccc2Cl)n1`, the melting point was in the range of 131 to 133 °C.

The molecule `CS(=O)(=O)c1cccc(C(=O)O)c1O` gave a melting point of 180 °C.

Take `O=C1C(=O)N(CCCN2CCN(C(=O)N(c3ccccc3)c3ccccc3)CC2)c2ccccc21`: the melting point was 163 to 164 °C.

`Cc1nc(-n2cnn(Cc3ccc(F)cc3)c2=O)sc1C(=O)NCc1ncco1` displayed a melting point of 152 to 153 °C.

For the molecule `COc1cc(SC)ccc1O`, the melting point fell in the range of 47 to 49 °C.

`CCOC(=O)c1cn(Cc2ccccc2)nc1OCc1ccc(OCc2nc(-c3ccco3)oc2C)cc1OC` registered a melting point of 137 to 138 °C.

As to `O=C1c2ccccc2C(=O)N1c1cccnc1Cl`, the melting point fell in the range of 156 to 157 °C.

As for `COc1ccc(CS(=O)(=O)Cc2ccc(OC)cc2)cc1`, the melting point was 108 to 123 °C.

`O=c1[nH]c2ccccc2c(=O)c2cc(Cl)ccc12` showed a melting point of 290 to 295 °C.

In turn, `COC(=O)c1ccc(Nc2nc(Nc3ccc(C(=O)OC)cc3)nc(Nc3ccc(C(=O)OCCOc4ccc(C(C)(C)CC(C)(C)C)cc4)cc3)n2)cc1` had a melting point of 157 to 160 °C.

For the molecule `NC(=O)C1CCN(c2c(Cl)cncc2Cl)C1` (configuration not stated), the melting point fell in the range of 161 to 163 °C.

Molecule `CN(C(=O)CN(C(=O)CNC(=O)OC(C)(C)C)c1ccccc1OCc1ccccc1)c1ccccc1` registered a melting point of 168 to 170 °C.

In the case of `CC1(C)CC(O)CC(C)(C)N1Cc1ccccc1`, the melting point was 151 to 152 °C.

In the case of `CCCCC(CC)C(=O)Nc1ccc2cnn(Cc3ccc(C(=O)OC)cc3OC)c2c1` (configuration not stated), the melting point was found to be 136 °C.

`Fc1ccc(Cn2c(OC3CCNCC3)nc3cncnc32)cc1` displayed a melting point of 79.3 °C.

`Cc1oc(-c2ccccc2)nc1COc1ccc2c(c1)CCC(CO)=C2`: the melting point fell in the range of 141 to 142 °C.

As to `Cc1cc(-c2ccc(C(F)(F)F)c(C)c2)nc(-c2cccc(-c3cccc(S(N)(=O)=O)c3)c2)n1`, the melting point is 222 °C.

On to `COc1ccc(N)c(C2OCCO2)c1OC`, for which the melting point was 78 to 80 °C.

Turning to `CC(C)(N)CNC(N)=O`, the melting point is 58 to 62 °C.

`COc1cccc2c(Cl)nc(C)nc12`: the melting point was 101 to 102 °C.

In turn, `Cc1cccc(-c2csc(N3CCN(C(=O)Nc4cccnc4)CC3)n2)c1` gave a melting point of 157 to 158 °C.

`CCCCc1nc2cnc3cc(C)ccc3c2o1` registered a melting point of 52 to 55 °C.

Consider `CC(C)(C)c1cc(C=C(C#N)C(N)=S)cc(C(C)(C)C)c1`, for which the melting point lay in the range of 172 to 174 °C.

Molecule `N#CCC1COc2ccccc2O1` (configuration not stated) had a melting point of 66 to 67 °C.

The molecule `CC(C)(C)OC(=O)N[C@H](C(=O)Br)c1ccccc1` yielded a melting point of 108 to 109 °C.

`CC(=O)[NH+]([O-])C[C@@H]1CN(c2cc(F)c(N3CCN(C(=O)CO)CC3)c(F)c2)C(=O)O1` (some centres not stated) had a melting point of 100 to 105 °C.

Turning to `Cc1ccsc1C=Cc1nccn1C`, the melting point is 287 to 288 °C.

The molecule `CC1(C)NC(SCc2ccccc2N)=NC1=S` yielded a melting point of 103 to 104 °C.

As for `CCN(CC)c1nc(C)[nH]c2c(-c3ccc(Cl)cc3Cl)nc(C)c1-2`, the melting point was in the range of 146 to 148 °C.

Molecule `CNC(=O)c1cccc(NC(=O)CCc2ccc(O)cc2)c1` displayed a melting point of 158 °C.

The molecule `N#CC(=CC(=O)c1ccccc1)C(=O)O` showed a melting point of 74 to 75 °C.
